According to patent publication US10213412B2, “Modulators of CA2+ release-activated CA2+ (CRAC) channels and pharmaceutical uses thereof” (Vivreon Biosciences, LLC, priority 2015, dated 2019):
Read-outs that look alike come from different tables or passages of the source. One block for each compound: values may come before it.

Columns and labels:
[1] = system: experimental autoimmune encephalomyelitis; experiment: in vivo; type: in vivo, C57/Bl6 mice
in vivo = type: in vivo, C57/Bl6 mice; conditions: C57/Bl6, mouse, in vivo, ip, 5 mg/kg
[2] = molecular target: T1, recombinant human Orai1 and recombinant human STIM1 (Homo sapiens, UniProt Q96D31); experiment: Ca^2+ signaling assay in HEK293 cells transfected with Orai1 and STIM1 (Fura-2); type: cell-based; conditions: HEK293 transfected with Orai1/STIM1, 10 μM Compound 1, single cell Fura-2 fluorescence
T1 construct: expressed in transfected cells; host or cells: human embryonic kidney 293 cells
T1 sequence (Q96D31 whole entry): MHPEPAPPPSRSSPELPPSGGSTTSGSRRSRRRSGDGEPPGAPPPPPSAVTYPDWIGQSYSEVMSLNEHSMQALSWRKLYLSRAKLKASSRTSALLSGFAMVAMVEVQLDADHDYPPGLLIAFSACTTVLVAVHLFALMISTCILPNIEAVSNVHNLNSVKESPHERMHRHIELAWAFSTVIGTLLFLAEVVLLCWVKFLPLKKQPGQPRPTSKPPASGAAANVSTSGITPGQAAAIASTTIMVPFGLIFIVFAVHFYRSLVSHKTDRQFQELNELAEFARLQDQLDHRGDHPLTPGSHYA
Description: FIG. 8 depicts Compound 1 as a modulator of store-operated Ca^2+ (SOC) channels. The white rectangle represents a 2 mM external Ca^2+ concentration solution, the hashed rectangle represents a 0 mM external Ca2+ concentration solution, the slashed rectangle represents a 0 mM external Ca^2+ concentration solution with 2 μM thapsigargin, the grey rectangle represents 10 μM Compound 1 in a 2 mM external Ca^2+ concentration solution, and the black rectangle represents […] 2-aminoethoxydiphenyl borate in a 2 mM external Ca^2+ concentration solution. Cell #1 and Cell #2 represent two separate human embryonic kidney 293 cells successfully transfected with recombinant human Orai1 and recombinant human STIM1.
Compound 1 was screened for inhibition of Ca^2+ signaling by examining the intracellular Ca^2+ response in the presence of Compound 1 (FIG. 8). First, human embryonic kidney 293 cells were transfected by lipofectamine with recombinant human Orai1 and recombinant human STIM1. Recombinant human Orai1 was genetically tagged with enhanced green fluorescent protein to label successfully transfected cells. Cells were plated on coverslips and loaded with 2 μM of the Ca^2+ indicator dye, Fura-2, to allow for detection of intracellular Ca^2+ concentration. Cellular fluorescence was determined by alternating fluorescent excitation at 340 and 380 nanometers.

MDR1 = experiment: MDCK-MDR1 permeability assay; type: in vitro ADME, canine; conditions: dog
Description: Compound 1 was evaluated for permeability across polarized Madin-Darby canine kidney-multidrug resistance protein 1 (MDCK-MDR1) epithelial monolayers. MDCK-MDR1 cells grown in tissue culture flasks were trypsinized, suspended in medium, and the suspensions were applied to wells of a Millipore 96 well Caco-2 plate (FIG. 7). The cells were allowed to grow and differentiate for five days and confluence was confirmed. For Apical to Basolateral (A→B) permeability, Compound 1 was added to the apical (A) side and amount of permeation is determined on the basolateral (B) side; for Basolateral to Apical (B→A) permeability, the Compound 1 was added to the B side and the amount of permeation was determined on the A side and analyzed by LC/MS/MS.

[3] = In vivo pharmacokinetics in rat; set-up: species or system Sprague Dawley rat
Description: Compound 1 was administered p.o. (▪) or i.v. (•) to a nine week old male Sprague Dawley rat (FIG. 6). For survival blood collection, 250-350 μL blood samples were collected via jugular vein (JUGVEIN) cannula at proposed time points per study protocol and recorded. Blood was collected pre-dose and at 15 & 30 min, 1, 2, 4, 12, 24 & 48 hr after Compound 1 administration. Blood was collected into lithium heparin tubes for plasma collection. Calibration standards and study samples were processed for LC/MS/MS analysis by precipitating 40 μL of each sample with two volumes of ice cold Internal Standard Solution (acetonitrile containing 50 ng/mL of dextromethorphan, 5 ng/mL diphenhydramine and 125 ng/mL diclofenac). The precipitated samples were centrifuged at 6100 g for 30 minutes. Following centrifugation, an aliquot of each supernatant was transferred to an autosampler plate and diluted with an equal volume of 0.2% formic acid in water. Processed study samples were analyzed using LC/MS/MS.

[4] = Concentrations of Compound 1 in mouse plasma and brain after s.c. administration; type: in vivo; conditions: C57/BL6 mice
Description: Compound 1 was administered s.c. to C57/BL6 mice and plasma and brain samples were processed and analyzed using standard bioanalytical protocols. Three mice were sacrificed at time points: 15 min, 1 hr and 4 hr. Blood was collected into lithium heparin tubes for plasma collection. Brain samples were homogenized prior to extraction using a FastPrep-24 tissue homogenizer. Plasma and brain homogenates were extracted by protein precipitation with acetonitrile containing verapamil as internal standard (IS). After vortexing for 10 min, samples were transferred to a 96 well filter plate and filtered using a centrifuge. Filtrates were analyzed by LC/MS/MS. The compounds were quantified with software using calibration curves. Compound 1 plasma (▪) and brain (•) concentrations are presented.

Human Jurkat T cells = experiment: Cancer cell viability assay, Jurkat; type: cell-based; conditions: 120 hours, flow cytometric light scatter
Description: (§1) Compound 2 was screened for inhibition of cancer cell survival by quantifying cellular death in the presence of Compound 2 (FIG. 4). Human Jurkat T cells (▪), an immortalized line of human acute T cell lymphoblastic leukemia; Ramos B cells (•), an immortalized line of human Burkitt's lymphoma; and primary human T cells (▴) isolated from the peripheral blood of a healthy, consenting donor were cultured in the presence Compound 2 to test for cellular viability and cell death. Cells were cultured in standard culture conditions, and primary human T cells were also activated with 4 μg/mL immobilized anti-CD3 (clone: OKT3) and 1 μg/mL soluble anti-CD28 (clone: CD28.2) antibodies and 0.2 ng/mL recombinant human IL-2. Cell viability was assayed through flow cytometric analysis of cellular light scatter following 72 hours for primary human or 120 hours for Jurkat and Ramos in standard culture conditions. Viable cell percentage was analyzed as the percent decrease of viable cells compared to a control well with no Compound 2 using a standard flow cytometry lymphocyte analysis gate of forward and side scatter.

[5] = system: Ca^2+ influx in human Jurkat T cells; experiment: Ca^2+ signaling assay in Jurkat T cells activated with PHA-P (Fluo-4, flow cytometer); type: cell-based
Description: (§2) Compound 2 was screened for inhibition of Ca^2+ signaling by examining the intracellular Ca^2+ response in the presence of Compound 2 (FIG. 2). First, the human Jurkat T cells, an immortalized line of human acute T cell lymphoblastic leukemia, were loaded with the 2 μM of the Ca^2+ indicator dye, Fluo-4, to allow for detection of Ca^2+ influx. Jurkat cells were then cultured with Compound 2 and activated with Phytohemagglutinin PHA-P to induce Ca^2+ influx. Immediately after activation, Ca^2+ influx was determined by measuring Jurkat fluorescence using a flow cytometer. Maximal Ca^2+ influx occurred with a 2.9 fold increase in mean Fluo-4 fluorescence intensity compared to an unstimulated control.

primary human T cells [6] = experiment: Primary human T cell proliferation assay (CFSE dilution); type: cell-based; conditions: 72 hours
Description: Compound 2 was screened for inhibition of primary human T cell proliferation by quantifying cellular divisions in the presence of Compound 2 (FIG. 3). First, a 96-well plate was coated with 4 μg/mL anti-CD3 antibody (clone: OKT3) in phosphate buffered saline overnight at 4 degrees Celsius. Primary human T cells were then isolated from the peripheral blood of a healthy, consenting donor using an antibody-based human T cell enrichment protocol. Human T cells were then stained with 1.75 μM of carboxyfluorescein succinimidyl ester, to allow for detection of cellular proliferation. Human T cells were then cultured with Compound 2 and activated with immobilized anti-CD3 and 1 μg/mL soluble anti-CD28 (clone: CD28.2) antibodies and 0.2 ng/mL recombinant human IL-2 to induce cellular proliferation through the NFAT and NF-κB transcription factor pathways. Proliferation was assayed through flow cytometric analysis of carboxyfluorescein succinimidyl ester dilution after 72 hours in standard culture conditions. Maximal proliferation occurred with a 3.9 fold increase in activation index compared to an unstimulated control.

Ramos B cells = experiment: Cancer cell viability assay, Ramos; type: cell-based, human; conditions: 120 hours, flow cytometric light scatter
Description: as §1

primary human T cells [7] = experiment: Cell viability assay, primary human T cells; type: cell-based; conditions: primary human T cells from a healthy donor, activated, 72 hours
Description: as §1

[8] = system: Ca^2+ influx in murine cerebellum CRL-2540 cells (mouse microglia); experiment: Ca^2+ signaling assay in microglia activated with thapsigargin (Fluo-4); type: cell-based
Description: as §2, with “5).” for “2).”, “murine cerebellum CRL-2540” for “human Jurkat T”, “mouse microglia,” for “human acute T cell lymphoblastic leukemia,”, “CRL-2540” for “Jurkat”, “2 μM thapsigargin” for “Phytohemagglutinin PHA-P”, “0.52” for “2.9”

[9] = male, Sprague Dawley, plasma, iv, 10000 ug/kg
[10] = male, Sprague Dawley, plasma, po, 10000 ug/kg

concentration at 1 h (in vivo; Compound level in the brain): 38 ± 4 nM | concentration at 1 h (in vivo; Compound level in the plasma): 23.3 ± 3.1 nM | efflux ratio (MDR1): 1.6 | Papp A→B (MDR1; Apical to Basolateral): 1 ×10⁻⁶ cm/s | Papp B→A (MDR1; Basolateral to Apical): 1.6 ×10⁻⁶ cm/s | AUC(0-inf) [3, 9]: 706 ng·h/mL | AUC(0-t) [3, 9]: 694 ng·h/mL | Cmax [3, 9]: 837 ng/mL | MRT inf [3, 9]: 1.9 h | Tmax [3, 9]: 0.25 h | clearance [3, 9]: 236 mL/min/kg | half-life ([3]; male, Sprague Dawley, plasma, iv, 10000 ug/kg, i.v., 10000 μg/kg, read-out: Terminal t½ (converted)): 2.64 h | Vd ([3]; male, Sprague Dawley, plasma, iv, 10000 ug/kg, i.v., 10000 μg/kg, read-out: VSS): 26.9 L/kg | AUC(0-inf) [3, 10]: 747 ng·h/mL | AUC(0-t) [3, 10]: 679 ng·h/mL | Cmax [3, 10]: 126 ng/mL | Tmax [3, 10]: 2 h | bioavailability [3, 10]: 106% | half-life ([3]; male, Sprague Dawley, plasma, po, 10000 ug/kg, p.o., 10000 μg/kg, read-out: T½ (converted)): 3.27 h
SMILES: CC(C)(C)c1cc(CCC(=O)c2ccc[nH]2)cc(C(C)(C)C)c1O [Compound 1, 3-(3,5-di-tert-butyl-4-hydroxyphenyl)-1-(1H-pyrrol-2-yl)propan-1-one]
Recovery of animals in the EAE model ([1]; 5 mg/kg i.p. daily starting on day −1): enhanced recovery | Neuroprotection (clinical score) compared to vehicle-treated mice ([1]; 5 mg/kg i.p. daily, p<0.05): significant neuroprotection | Modulation of store-operated Ca^2+ (SOC) channels [2]: modulates store-operated Ca^2+ (SOC) channels | Animal body weight and clinical observations ([3]; p.o. or i.v., 10000 μg/kg): appeared normal | Animal body weight and clinical observations [4]: appeared normal

SMILES: CC(C)(C)c1cc(CCC(=O)c2[nH]c(Cl)c(Cl)c2Cl)cc(C(C)(C)C)c1O [Compound 2, 3-(3,5-di-tert-butyl-4-hydroxyphenyl)-1-(3,4,5-trichloro-1H-pyrrol-2-yl)propan-1-one]
Cell viability in the presence of compound (Human Jurkat T cells): decreased | IC50 ([5]; Homo sapiens, PHA-P activation, Fluo-4 fluorescence, read-out: IC50 of inhibition of Ca^2+ influx): 3.78 µM | Maximal inhibition of Ca^2+ influx, fold increase compared to an unstimulated control ([5]; PHA-P, maximal influx 2.9 fold): 0.35 fold | Maximal inhibition of proliferation, fold increase in activation index compared to an unstimulated control (primary human T cells [6]; maximal proliferation 3.9 fold): 0.91 fold | IC50 (primary human T cells [6]; Homo sapiens, T-cell, anti-CD3/anti-CD28/IL-2 activation, read-out: IC50 of inhibition of primary human T cell proliferation): 0.671 µM | Cell viability in the presence of compound (Ramos B cells): decreased | Cell viability in the presence of compound (primary human T cells [7]): did not decrease | Maximal inhibition of Ca^2+ influx, fold increase compared to an unstimulated control ([8]; CRL-2540, thapsigargin, maximal influx 0.52 fold): 0.19 fold | IC50 ([8]; Mus musculus, CRL-2540 microglia, 2 μM thapsigargin, Fluo-4, read-out: IC50 of inhibition of Ca^2+ influx): 10.9 µM
